Laboratory results published in US11186617B2, “Epitope” (HOYU CO., LTD., priority 2017, dated 2021).
Entries after “also recorded” stand apart in the source; their conditions may differ.

Key:
[1] = test system: IgE antibody from the patient; experiment: Epitope mapping (3): alanine scanning ELISA, patient serum; format: binding, human; conditions: alanine-substituted peptides; serum from patient 1; FIG. 3
Experimental: (§1) The amino acid sequence of SEQ ID NO: 22 and the amino acid sequence of SEQ ID NO: 29 identified in the above-mentioned (B) were subjected to a technique referred to as alanine scanning (Non Patent Literature 1). Specifically, a library of peptide fragments was prepared by a technique similar to that described above in (B), in which the peptide fragments were produced by substituting one amino acid at a time with alanine in each amino acid sequence of […], starting from the amino acid at an amino terminal side. Then, a technique similar to that described above in (B) was used to measure whether each peptide fragment was bound by the IgE antibody in the serum from a patient and a healthy subject, or not. When alanine substitution of an amino acid at a certain position led to loss or reduction of binding activity to the IgE antibody from the patient and development of binding activity to the IgE antibody from the healthy subject, the amino acid was determined to be an amino acid important for expression of inherent antigenicity or an amino acid affecting expression of inherent antigenicity. […] A common sequence important for expression of inherent antigenicity was discovered by this analysis.
(§2) The result of alanine scanning performed on the amino acid sequence of SEQ ID NO: 22 and the result of alanine scanning performed on the amino acid sequence of SEQ ID NO: 29 are shown in FIG. 3, respectively.

[2] = test system: IgE antibody from the healthy subject; experiment: Epitope mapping (3): alanine scanning ELISA, healthy subject serum; format: binding, human; conditions: alanine-substituted peptides; sera from healthy individuals 1 and 2; FIG. 3
Experimental: as §1, §2

[3] = test system: anti-human IgE antibody as a secondary antibody; experiment: Epitope mapping (3): alanine scanning ELISA, secondary antibody used alone; format: binding; conditions: alanine-substituted peptides, FIG. 3
Description: FIG. 3 is a diagram showing the result of investigation of positions important for exerting antigenicity in SEQ ID NOs: 22 and 29 by an alanine scanning technique. The number on the horizontal axis denotes a value of coloration intensity at 450 nm measured by an absorption spectrometer (Abs.). In this figure, a double wavy line denotes that a value is not shown, P1 denotes that the serum from patient 1 was used, N1 and N2 denote that the sera from healthy individuals 1 and 2 were used, and 2nd denotes that an anti-human IgE antibody as a secondary antibody was used alone.
as §1, §2

[4] = test system: IgE antibody in the serum from a patient; experiment: Epitope mapping (2): overlapping peptide library, ELISA; format: binding, human; conditions: overlapping peptide fragments, 10 amino acids in length; 10 μg/ml biotin-bound peptide; 2% serum from patient 1; FIG. 2
Experimental: Based on the sequences (SEQ ID NOs: 6 and 13) of the peptides to which the IgE antibody in the serum bound in a manner specific to a patient in the above (A), a library of overlapping peptide fragments (10 amino acids in length) was prepared. The library was prepared using the sequences where sequences of the previous sequence and the next sequence of the aforementioned peptides in the full-length amino acid sequence of ω-5 gliadin from bread wheat (SEQ ID NO: 51) were added to the aforementioned peptides, and epitope mapping was performed.
Each synthesized peptide was shifted by one amino acid. In other words, each peptide overlaps with the previous peptide and the next peptide, each by 9 amino acids.
The target peptide was synthesized on the amino-modified resin in a 96-well plate by a method similar to that described above for (A). Biotin was bound to the amino terminus of the synthesized target peptide, with the biotin and the peptide sandwiching amino caproic acid derived from Fmoc-Acp(6)-OH as a spacer.
Said library was used to measure whether each peptide fragment is bound by the IgE antibody in the serum from a patient due to an antigen-antibody reaction, or not, and identify a sequence common to the peptides bound by the IgE antibody from the patient, thereby determining a peptide having the shortest amino acid sequence that serves as an epitope. Measurement was performed by an ELISA method in accordance with the following procedures.
(1) 10 μg/ml biotin-bound peptide of the library was prepared in PBST solution and was shaken in an avidin-coated ELISA plate for one hour at room temperature.
(2) The plate was washed with PBST solution.
(3) The plate was shaken in PBST solution with 1% skimmed milk for one hour at room temperature.
(4) The plate was shaken in PBST solution with 2% serum and 1% skimmed milk for one hour at room temperature.
(5) The plate was washed with PBST solution.
(6) Anti-human IgE antibody-HRP (1:10,000, PBST solution with 1% skimmed milk) was added and the plate was shaken for one hour at room temperature.
(7) The plate was washed with PBST solution.
(8) 20 μl of TMB ELISA (manufactured by Thermo Fisher Scientific) was added and the plate was shaken for 15 minutes at room temperature.
(9) 20 μl of 2 M sulfuric acid was added to quench an enzymatic reaction.
(10) An absorbance at 450 nm was measured.
(SEQ ID NO: 15), a subsequence of ω-5 gliadin from bread wheat, was measured by the overlapping technique in the library prepared based on SEQ ID NO: 6 and the obtained result is shown in FIG. 2. […] (SEQ ID NO: 23), a subsequence of ω-5 gliadin from bread wheat, was measured by the overlapping technique in the library prepared based on SEQ ID NO: 13 and the obtained result is shown in FIG. 2.

| Substance | binding activity to the IgE antibody from the patient (absorbance at 450 nm) [1] | binding activity to the IgE antibody from the healthy subject (absorbance at 450 nm) [2] | binding activity to the anti-human IgE antibody as the secondary antibody (absorbance at 450 nm) [3] | binding with the IgE antibody from the patient (absorbance at 450 nm) [4] |
| --- | --- | --- | --- | --- |
| SEQ ID NO: 7: amino acid at position 3 in SEQ ID NO: 22 substituted with alanine (QQFPQQEAPQQQQFP; epitope) | retained binding activity; also recorded: substantially increased binding activity | developed little binding activity | developed little binding activity | – |
| SEQ ID NO: 14: amino acid at position 5 in SEQ ID NO: 29 substituted with alanine (PQQQAPQQHQFPQQQ; epitope) | retained binding activity; also recorded: substantially increased binding activity | did not develop binding activity | – | – |
| SEQ ID NO: 16: overlapping 10-amino-acid peptide fragment from SEQ ID NO: 15 library (EFPQQQQFPQ; epitope candidate) | – | – | – | no binding |
| SEQ ID NO: 17: overlapping 10-amino-acid peptide fragment from SEQ ID NO: 15 library, contains SEQ ID NO: 22 (QEFPQQQQFP; epitope candidate) | – | – | – | slightly weaker binding |
| SEQ ID NO: 18: overlapping 10-amino-acid peptide fragment from SEQ ID NO: 15 library, contains SEQ ID NO: 22 (QQEFPQQQQF; epitope candidate) | – | – | – | strong binding |
| SEQ ID NO: 19: overlapping 10-amino-acid peptide fragment from SEQ ID NO: 15 library, contains SEQ ID NO: 22 (PQQEFPQQQQ; epitope candidate) | – | – | – | slightly weaker binding |
| SEQ ID NO: 20: overlapping 10-amino-acid peptide fragment from SEQ ID NO: 15 library, contains SEQ ID NO: 22 (FPQQEFPQQQ; epitope candidate) | – | – | – | strong binding |
| SEQ ID NO: 21: overlapping 10-amino-acid peptide fragment from SEQ ID NO: 15 library (QFPQQEFPQQ; epitope candidate) | – | – | – | no binding |
| SEQ ID NO: 24: overlapping 10-amino-acid peptide fragment from SEQ ID NO: 23 library (QQQPPQQHQF; epitope candidate) | – | – | – | no binding |
| SEQ ID NO: 25: overlapping 10-amino-acid peptide fragment from SEQ ID NO: 23 library, contains SEQ ID NO: 29 (PQQQPPQQHQ; epitope candidate) | – | – | – | strong binding |
| SEQ ID NO: 26: overlapping 10-amino-acid peptide fragment from SEQ ID NO: 23 library, contains SEQ ID NO: 29 (FPQQQPPQQH; epitope candidate) | – | – | – | strong binding |
| SEQ ID NO: 27: overlapping 10-amino-acid peptide fragment from SEQ ID NO: 23 library, contains SEQ ID NO: 29 (QFPQQQPPQQ; epitope candidate) | – | – | – | slightly weaker binding |
| SEQ ID NO: 28: overlapping 10-amino-acid peptide fragment from SEQ ID NO: 23 library (QQFPQQQPPQ; epitope candidate) | – | – | – | no binding |
| SEQ ID NO: 30: amino acid at position 7 in SEQ ID NO: 22 substituted with alanine (QQFPQQEFPQQAQFP; modified epitope) | lost or reduced | – | developed binding activity | – |
| SEQ ID NO: 31: amino acid at position 6 in SEQ ID NO: 22 substituted with alanine (QQFPQQEFPQAQQFP; modified epitope) | slightly reduced binding activity | developed a relatively low level of binding activity | developed a relatively low level of binding activity | – |
| SEQ ID NO: 33: amino acid at position 4 in SEQ ID NO: 22 substituted with alanine (QQFPQQEFAQQQQFP; modified epitope) | lost or reduced | developed binding activity | – | – |
| SEQ ID NO: 34: amino acid at position 2 in SEQ ID NO: 22 substituted with alanine (QQFPQQAFPQQQQFP; modified epitope) | slightly increased binding activity | developed binding activity | – | – |
| SEQ ID NO: 39: amino acid at position 4 in SEQ ID NO: 29 substituted with alanine (PQQAPPQQHQFPQQQ; modified epitope) | retained binding activity | did not develop binding activity | – | – |
| SEQ ID NO: 40: amino acid at position 3 in SEQ ID NO: 29 substituted with alanine (PQAQPPQQHQFPQQQ; modified epitope) | loss of binding activity | – | developed binding activity | – |
| SEQ ID NO: 41: amino acid at position 2 in SEQ ID NO: 29 substituted with alanine (PAQQPPQQHQFPQQQ; modified epitope) | a relatively low level of reduction of binding activity | – | – | – |
| SEQ ID NO: 42: amino acid at position 1 in SEQ ID NO: 29 substituted with alanine (AQQQPPQQHQFPQQQ; Artificial Sequnece; modified epitope) | loss of binding activity | – | – | – |
